According to US20250017935A1, “7,8-DIHYDRO-5H-1,6-NAPHTHYRIDINE DERIVATIVES AS POSITIVE ALLOSTERIC MODULATORS OF THE MUSCARINIC ACETYLCHOLINE RECEPTOR M4 FOR TREATING NEUROLOGICAL AND PSYCHIATRIC DISORDERS” (Vanderbilt University, priority 2021, published 2025):

Target: T1, Human M4 (Homo sapiens, UniProt P08173)
T1 construct: expressed in transfected cells; host or cells: CHO-K1 (ATCC), stably expressing hM4 and Gqi5
T1 sequence (P08173 1-479): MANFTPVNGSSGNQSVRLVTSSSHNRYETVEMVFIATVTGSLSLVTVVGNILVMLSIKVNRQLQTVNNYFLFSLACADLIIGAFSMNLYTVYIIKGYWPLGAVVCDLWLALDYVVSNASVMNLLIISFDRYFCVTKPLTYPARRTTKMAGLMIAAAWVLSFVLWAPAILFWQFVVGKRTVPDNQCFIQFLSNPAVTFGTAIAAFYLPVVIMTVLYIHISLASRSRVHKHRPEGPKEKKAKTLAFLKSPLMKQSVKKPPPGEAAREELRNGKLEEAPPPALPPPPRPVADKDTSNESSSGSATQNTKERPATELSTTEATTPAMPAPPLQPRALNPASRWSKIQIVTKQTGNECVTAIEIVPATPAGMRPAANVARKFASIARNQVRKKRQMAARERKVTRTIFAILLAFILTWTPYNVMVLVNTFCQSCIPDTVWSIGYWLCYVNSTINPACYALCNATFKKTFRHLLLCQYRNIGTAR
Assay: mAChR M4 cell-based functional assay (calcium flux, potentiation of EC20 acetylcholine response) in hM4-Gqi5 CHO-K1 cells
Conditions: for Emax at 30 µM: % ACh maximum at 30 μM, human M4 CHO-K1 cells; for EC50: CHO-K1 cells transfected with human M4 and Gqi5, positive allosteric modulator activity, EC20 acetylcholine
Experimental: Human M4 cDNA, along with the chimeric G protein Gqi5, were transfected into Chinese hamster ovary (CHO-K1) cells purchased from the American Type Culture Collection using commercially available Lipofectamine 2000 transfection reagent (Dalby, B. et al., Methods (2004) 33(2), 95-103). hM4-Gqi5 cells were grown in Ham's F-12 medium containing 10% heat-inactivated fetal bovine serum (FBS), 20 mM HEPES, 50 μg/mL G418 sulfate (CAS #108321-42-2), and 500 μg/mL Hygromycin B. rM4-Gqi5 cells were grown in DMEM containing 10% heat-inactivated FBS, 20 mM HEPES, 400 μg/mL G418 sulfate, and 500 μg/mL Hygromycin B.
For high throughput measurement of agonist-evoked increases in intracellular calcium, CHO-K1 cells stably expressing muscarinic receptors were plated in growth medium lacking G418 sulfate and hygromycin at 15,000 cells/20 μL/well in Greiner 384-well black-walled, tissue culture (TC)-treated, clear-bottom plates (VWR). Cells were incubated overnight at 37° C. and 5% CO2. The next day, cells were washed using an ELX 405 (BioTek) with assay buffer; the final volume was then aspirated to 20 μL. Next, 20 μL of a 2.3 μM stock of Fluo-4/acetoxymethyl ester (Invitrogen, Carlsbad, CA), prepared as a 2.3 mM stock in DMSO and mixed in a 1:1 ratio with 10% (w/v) Pluronic F-127 and diluted in assay buffer, was added to the wells and the cell plates were incubated for 50 minutes at 37° C. and 5% CO2. Dye was removed by washing with the ELX 405 and the final volume was aspirated to 20 μL. Compound master plates were formatted in an 11 point concentration-response curve (CRC) format (1:3 dilutions) in 100% DMSO with a starting concentration of 10 mM using a BRAVO liquid handler (Agilent). Test compound CRCs were then transferred to daughter plates (240 nL) using the Echo acoustic plate reformatter (Labcyte, Sunnyvale, CA) and then diluted into assay buffer (40 μL) to a 2× stock using a Thermo Fisher Combi (Thermo Fisher Scientific, Waltham, MA).
Calcium flux was measured using the Functional Drug Screening System (FDSS) 6000 or 7000 (Hamamatsu Corporation, Tokyo, Japan) as an increase in the fluorescent static ratio. Compounds were applied to cells (20 μL, 2×) using the automated system of the FDSS at 2-4 seconds into the protocol and the data were collected at 1 Hz. […] Agonist activity was analyzed as a concentration-dependent increase in calcium mobilization upon compound addition. Positive allosteric modulator activity was analyzed as a concentration-dependent increase in the EC20 acetylcholine response. With the acetylcholine EC20 set as baseline, the test compound EC50 is determined as the concentration that produces an increase above baseline of 50% of the maximum increase in acetylcholine response elicted by the test compound. Antagonist activity was analyzed as a concentration-dependent decrease in the EC80 acetylcholine response. Concentration-response curves were generated using a four-parameter logistical equation in XLFit curve fitting software (IDBS, Bridgewater, NJ) for Excel (Microsoft, Redmond, WA) or Prism (GraphPad Software, Inc., San Diego, CA).
Compounds were synthesized as described above. Activity (EC50 and Emax) was determined in the mAChR M4 cell-based functional assay as described above and the data are shown in Table 5. The compound numbers correspond to the compound numbers used in Examples 1-13 and Tables 1, 2, and 3.

SMILES | Emax at 30 µM [%] | EC50 [nM]
Cc1ccc(-c2cnc3c(c2)CN(c2ncnc4occ(C)c24)CC3)cn1 [Compound 48, 5-methyl-4-[3-(6-methyl-3-pyridyl)-7,8-dihydro-5H-1,6-naphthyridin-6-yl]furo[2,3-d]pyrimidine] | 102 | 90
Cc1ncc(-c2cnc3c(c2)CN(c2ncnc4occ(C)c24)CC3)s1 [Compound 49, 5-methyl-4-[3-(2-methylthiazol-5-yl)-7,8-dihydro-5H-1,6-naphthyridin-6-yl]furo[2,3-d]pyrimidine] | 68 | 130
Cc1noc2ncnc(N3CCc4ncc(N5CCOc6ncccc65)cc4C3)c12 [Compound 50, 1-[6-(3-methylisoxazolo[5,4-d]pyrimidin-4-yl)-7,8-dihydro-5H-1,6-naphthyridin-3-yl]-2,3-dihydropyrido[2,3-b][1,4]oxazine] | 100 | 240
Cc1ccc(-c2cnc3c(c2)CN(c2ncnc4onc(C)c24)CC3)cn1 [Compound 51, 3-methyl-4-[3-(6-methyl-3-pyridyl)-7,8-dihydro-5H-1,6-naphthyridin-6-yl]isoxazolo[5,4-d]pyrimidine] | 89 | 510
Cc1ncc(-c2cnc3c(c2)CN(c2ncnc4onc(C)c24)CC3)s1 [Compound 52, 3-methyl-4-[3-(2-methylthiazol-5-yl)-7,8-dihydro-5H-1,6-naphthyridin-6-yl]isoxazolo[5,4-d]pyrimidine] | 92 | 550
Cc1coc2ncnc(N3CCc4ncc(Cc5ccccc5F)cc4C3)c12 [Compound 53, 4-[3-[(2-fluorophenyl)methyl]-7,8-dihydro-5H-1,6-naphthyridin-6-yl]-5-methyl-furo[2,3-d]pyrimidine] | 81 | 280
Cc1coc2ncnc(N3CCc4ncc(Cc5cccc(F)c5)cc4C3)c12 [Compound 54, 4-[3-[(3-fluorophenyl)methyl]-7,8-dihydro-5H-1,6-naphthyridin-6-yl]-5-methyl-furo[2,3-d]pyrimidine] | 78 | 500
Cc1coc2ncnc(N3CCc4ncc(Nc5ccnn5C)cc4C3)c12 [Compound 55, 6-(5-methylfuro[2,3-d]pyrimidin-4-yl)-N-(2-methylpyrazol-3-yl)-7,8-dihydro-5H-1,6-naphthyridin-3-amine] | 94 | 60
Cc1coc2ncnc(N3CCc4ncc(-c5ccnn5C)cc4C3)c12 [Compound 56, 5-methyl-4-[3-(2-methylpyrazol-3-yl)-7,8-dihydro-5H-1,6-naphthyridin-6-yl]furo[2,3-d]pyrimidine] | 74 | 80
FC(F)(F)c1cnc2c(c1)CN(c1nc(Cl)nc3c1CCC3)CC2 [Compound 57, 6-(2-chloro-6,7-dihydro-5H-cyclopenta[d]pyrimidin-4-yl)-3-(trifluoromethyl)-7,8-dihydro-5H-1,6-naphthyridine] | 69 | 100

Now from value to compound:

Emax at 30 µM [%] | EC50 [nM] | SMILES
88 | 1480 | FC(F)(F)c1cnc2c(c1)CN(c1nc(C3CC3)nc3c1CCC3)CC2 [Compound 58, 6-(2-cyclopropyl-6,7-dihydro-5H-cyclopenta[d]pyrimidin-4-yl)-3-(trifluoromethyl)-7,8-dihydro-5H-1,6-naphthyridine]
87 | 1030 | Cc1nc2c(c(N3CCc4ncc(C(F)(F)F)cc4C3)n1)CCC2 [Compound 59, 6-(2-methyl-6,7-dihydro-5H-cyclopenta[d]pyrimidin-4-yl)-3-(trifluoromethyl)-7,8-dihydro-5H-1,6-naphthyridine]
31 | 6060 | Cn1ncc2ncnc(N3CCc4ncc(C(F)(F)F)cc4C3)c21 [Compound 60, 6-(1-methylpyrazolo[4,3-d]pyrimidin-7-yl)-3-(trifluoromethyl)-7,8-dihydro-5H-1,6-naphthyridine]
80 | 830 | Cn1ccc2c(N3CCc4ncc(C(F)(F)F)cc4C3)ncnc21 [Compound 61, 6-(7-methylpyrrolo[2,3-d]pyrimidin-4-yl)-3-(trifluoromethyl)-7,8-dihydro-5H-1,6-naphthyridine]
58 | 3290 | FC(F)(F)c1cnc2c(c1)CN(c1nc(Cl)nc3c1COC3)CC2 [Compound 62, 2-chloro-4-[3-(trifluoromethyl)-7,8-dihydro-5H-1,6-naphthyridin-6-yl]-5,7-dihydrofuro[3,4-d]pyrimidine]
56 | 370 | Clc1nc2c(c(N3CCc4ncc(N5CCOc6ncccc65)cc4C3)n1)COC2 [Compound 63, 1-[6-(2-chloro-5,7-dihydrofuro[3,4-d]pyrimidin-4-yl)-7,8-dihydro-5H-1,6-naphthyridin-3-yl]-2,3-dihydropyrido[2,3-b][1,4]oxazine]
62 | 300 | Clc1nc2c(c(N3CCc4ncc(N5CCCn6nccc65)cc4C3)n1)COC2 [Compound 64, 2-chloro-4-(3-(6,7-dihydropyrazolo[1,5-a]pyrimidin-4(5H)-yl)-7,8-dihydro-1,6-naphthyridin-6(5H)-yl)-5,7-dihydrofuro[3,4-d]pyrimidine]
35 | 3260 | C[C@@H]1CN(c2cnc3c(c2)CN(c2nc(Cl)nc4c2COC4)CC3)CCO1 [Compound 65, (R)-2-chloro-4-(3-(2-methylmorpholino)-7,8-dihydro-1,6-naphthyridin-6(5H)-yl)-5,7-dihydrofuro[3,4-d]pyrimidine]
54 | 580 | Clc1nc2c(c(N3CCc4ncc(C5CC5)cc4C3)n1)COC2 [Compound 66, 2-chloro-4-(3-cyclopropyl-7,8-dihydro-1,6-naphthyridin-6(5H)-yl)-5,7-dihydrofuro[3,4-d]pyrimidine]
51 | 1220 | Cn1nccc1Nc1cnc2c(c1)CN(c1nc(Cl)nc3c1COC3)CC2 [Compound 67, 6-(2-chloro-5,7-dihydrofuro[3,4-d]pyrimidin-4-yl)-N-(1-methyl-1H-pyrazol-5-yl)-5,6,7,8-tetrahydro-1,6-naphthyridin-3-amine]
51 | 920 | Fc1ncccc1Nc1cnc2c(c1)CN(c1nc(Cl)nc3c1COC3)CC2 [Compound 68, 6-(2-chloro-5,7-dihydrofuro[3,4-d]pyrimidin-4-yl)-N-(2-fluoropyridin-3-yl)-5,6,7,8-tetrahydro-1,6-naphthyridin-3-amine]
42 | 990 | Fc1ccccc1Oc1cnc2c(c1)CN(c1nc(Cl)nc3c1COC3)CC2 [Compound 69, 2-chloro-4-(3-(2-fluorophenoxy)-7,8-dihydro-1,6-naphthyridin-6(5H)-yl)-5,7-dihydrofuro[3,4-d]pyrimidine]
